Data: patent US20060234977A1, “Antiviral compostion comprising a sulphated glucose polymer and a bacteriostatic agent” (priority 2003, published 2006)

Assays:
HIV = assay: Activity against HIV and other sexually transmitted diseases; conditions: by comparison with dextrin 2- and 6-sulphates

Row | Substance | spermicidal activity (Spermicidal activity) | activity against HIV and other sexually transmitted diseases (STDs) (HIV)
1 | dextrin sulphate | little or no spermicidal activity | 
2 | Dextrin 3-sulphate [Example 1] |  | relatively poor activity
